Laboratory results taken from PubChem BioAssay AID1963962 (Molecular Pharmacology Branch, DTP, NCI, 2024).
Values belong to the molecule of their own block, whether it stands above or below them.

System: 967376-340-R-J2-PDC multicell spheroid viability
Experiment: Anticancer human tumor 967376-340-R-J2-PDC patient-derived colon adenocarcinoma cell line growth inhibition [PI3K]
Conditions: for IC50: curve of first compound; for viability, T/C: stronger effect = lower value
Outline: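 Multi-cell spheroids combine tumor cells with HUVEC and human MSCs, treated with targeted agents alone or with inavolisib, alpelisib, duvelisib or copanlisib. Concentrations fall in half-log steps from at or near clinical Cmax, or from 10 microM where Cmax is unknown; viability read-out.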

[1] = second compound 0.0316 µM, first compound 0.000316 µM
[2] = second compound 0.0316 µM, first compound 0.001 µM
[3] = second compound 0.0316 µM, first compound 0.00316 µM
[4] = second compound 0.0316 µM, first compound 0.01 µM
[5] = second compound 0.0316 µM, first compound 0.0316 µM
[6] = second compound 0.0316 µM, first compound 0.1 µM
[7] = second compound 0.1 µM, first compound 0.000316 µM
[8] = second compound 0.1 µM, first compound 0.001 µM
[9] = second compound 0.1 µM, first compound 0.00316 µM
[10] = second compound 0.1 µM, first compound 0.01 µM
[11] = second compound 0.1 µM, first compound 0.0316 µM
[12] = second compound 0.1 µM, first compound 0.1 µM
[13] = second compound 0.316 µM, first compound 0.000316 µM
[14] = second compound 0.316 µM, first compound 0.001 µM
[15] = second compound 0.316 µM, first compound 0.00316 µM
[16] = second compound 0.316 µM, first compound 0.01 µM
[17] = second compound 0.316 µM, first compound 0.0316 µM
[18] = second compound 0.316 µM, first compound 0.1 µM
[19] = second compound 1 µM, first compound 0.000316 µM
[20] = second compound 1 µM, first compound 0.001 µM
[21] = second compound 1 µM, first compound 0.00316 µM
[22] = second compound 1 µM, first compound 0.01 µM
[23] = second compound 1 µM, first compound 0.0316 µM
[24] = second compound 1 µM, first compound 0.1 µM
[25] = second compound 3.16 µM, first compound 0.000316 µM
[26] = second compound 3.16 µM, first compound 0.001 µM
[27] = second compound 3.16 µM, first compound 0.00316 µM
[28] = second compound 3.16 µM, first compound 0.01 µM
[29] = second compound 3.16 µM, first compound 0.0316 µM
[30] = second compound 3.16 µM, first compound 0.1 µM
[31] = second compound 10 µM, first compound 0.000316 µM
[32] = second compound 10 µM, first compound 0.001 µM
[33] = second compound 10 µM, first compound 0.00316 µM
[34] = second compound 10 µM, first compound 0.01 µM
[35] = second compound 10 µM, first compound 0.0316 µM
[36] = second compound 10 µM, first compound 0.1 µM
[37] = second compound 0.0316 µM, first compound 0.316 µM
[38] = second compound 0.0316 µM, first compound 1 µM
[39] = second compound 0.0316 µM, first compound 3.16 µM
[40] = second compound 0.0316 µM, first compound 10 µM
[41] = second compound 0.1 µM, first compound 0.316 µM
[42] = second compound 0.1 µM, first compound 1 µM
[43] = second compound 0.1 µM, first compound 3.16 µM
[44] = second compound 0.1 µM, first compound 10 µM
[45] = second compound 0.316 µM, first compound 0.316 µM
[46] = second compound 0.316 µM, first compound 1 µM
[47] = second compound 0.316 µM, first compound 3.16 µM
[48] = second compound 0.316 µM, first compound 10 µM
[49] = second compound 1 µM, first compound 0.316 µM
[50] = second compound 1 µM, first compound 1 µM
[51] = second compound 1 µM, first compound 3.16 µM
[52] = second compound 1 µM, first compound 10 µM
[53] = second compound 3.16 µM, first compound 0.316 µM
[54] = second compound 3.16 µM, first compound 1 µM
[55] = second compound 3.16 µM, first compound 3.16 µM
[56] = second compound 3.16 µM, first compound 10 µM
[57] = second compound 10 µM, first compound 0.316 µM
[58] = second compound 10 µM, first compound 1 µM
[59] = second compound 10 µM, first compound 3.16 µM
[60] = second compound 10 µM, first compound 10 µM
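Also: spheroids exposed to agents for 7 days before read-out.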
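For viability, T/C in this document: luminescence used as surrogate of cell viability.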

Compound: CC(=O)c1c(C)c2cnc(Nc3ccc(N4CCNCC4)cn3)nc2n(C2CCCC2)c1=O + Cc1nc(NC(=O)N2CCCC2C(N)=O)sc1-c1ccnc(C(C)(C)C(F)(F)F)c1
IC50 (second compound 0.0316 µM): > 0.1 µM
IC50 (second compound 0.1 µM): > 0.1 µM
IC50 (second compound 0.316 µM): > 0.1 µM
IC50 (second compound 1 µM): > 0.1 µM
IC50 (second compound 3.16 µM): > 0.1 µM
IC50 (second compound 10 µM): 0.0245 µM
viability, T/C [1]: 98.9%
viability, T/C [2]: 84.7%
viability, T/C [3]: 101%
viability, T/C [4]: 90.7%
viability, T/C [5]: 102%
viability, T/C [6]: 77.3%
viability, T/C [7]: 105%
viability, T/C [8]: 94.3%
viability, T/C [9]: 88.3%
viability, T/C [10]: 99.4%
viability, T/C [11]: 109%
viability, T/C [12]: 75.6%
viability, T/C [13]: 89%
viability, T/C [14]: 82.1%
viability, T/C [15]: 75%
viability, T/C [16]: 82.6%
viability, T/C [17]: 84.2%
viability, T/C [18]: 101%
viability, T/C [19]: 65%
viability, T/C [20]: 74.4%
viability, T/C [21]: 88.7%
viability, T/C [22]: 79.1%
viability, T/C [23]: 75.5%
viability, T/C [24]: 76.3%
viability, T/C [25]: 59.4%
viability, T/C [26]: 68.2%
viability, T/C [27]: 74.5%
viability, T/C [28]: 57.8%
viability, T/C [29]: 63.8%
viability, T/C [30]: 60.4%
viability, T/C [31]: 62.2%
viability, T/C [32]: 50.8%
viability, T/C [33]: 57.2%
viability, T/C [34]: 55.9%
viability, T/C [35]: 46.3%
viability, T/C [36]: 47.1%

Compound: CC1(C)CCC(CN2CCN(c3ccc(C(=O)NS(=O)(=O)c4ccc(NCC5CCOCC5)c([N+](=O)[O-])c4)c(Oc4cnc5[nH]ccc5c4)c3)CC2)=C(c2ccc(Cl)cc2)C1 + Cc1nc(NC(=O)N2CCCC2C(N)=O)sc1-c1ccnc(C(C)(C)C(F)(F)F)c1
IC50 (second compound 0.0316 µM): > 10 µM
IC50 (second compound 0.1 µM): 8.83 µM
IC50 (second compound 0.316 µM): 8.52 µM
IC50 (second compound 1 µM): > 10 µM
IC50 (second compound 3.16 µM): 4.67 µM
IC50 (second compound 10 µM): 2.63 µM
viability, T/C [5]: 103%
viability, T/C [6]: 91.3%
viability, T/C [37]: 88.8%
viability, T/C [38]: 86%
viability, T/C [39]: 104%
viability, T/C [40]: 55.1%
viability, T/C [11]: 88.9%
viability, T/C [12]: 83.6%
viability, T/C [41]: 86.4%
viability, T/C [42]: 86.8%
viability, T/C [43]: 77.8%
viability, T/C [44]: 46.5%
viability, T/C [17]: 88.2%
viability, T/C [18]: 76.8%
viability, T/C [45]: 73%
viability, T/C [46]: 66.1%
viability, T/C [47]: 75.9%
viability, T/C [48]: 46%
viability, T/C [23]: 86.1%
viability, T/C [24]: 73.3%
viability, T/C [49]: 72.1%
viability, T/C [50]: 61.5%
viability, T/C [51]: 69.2%
viability, T/C [52]: 52.3%
viability, T/C [29]: 57.1%
viability, T/C [30]: 71.8%
viability, T/C [53]: 63%
viability, T/C [54]: 60.5%
viability, T/C [55]: 59%
viability, T/C [56]: 33.4%
viability, T/C [35]: 63.9%
viability, T/C [36]: 50.3%
viability, T/C [57]: 62.7%
viability, T/C [58]: 48.8%
viability, T/C [59]: 53%
viability, T/C [60]: 38.6%

Second part, led by results:

IC50 (second compound 0.0316 µM): > 0.1 µM
IC50 (second compound 0.1 µM): 0.0913 µM
IC50 (second compound 0.316 µM): 0.0705 µM
IC50 (second compound 1 µM): 0.0551 µM
IC50 (second compound 3.16 µM): 0.022 µM
IC50 (second compound 10 µM): 0.00587 µM
Compound: CC(C)n1nc(-c2ccc3oc(N)nc3c2)c2c(N)ncnc21 + Cc1nc(NC(=O)N2CCCC2C(N)=O)sc1-c1ccnc(C(C)(C)C(F)(F)F)c1
viability, T/C [1]: 90.8%
viability, T/C [2]: 108%
viability, T/C [3]: 96.5%
viability, T/C [4]: 109%
viability, T/C [5]: 70.5%
viability, T/C [6]: 53.4%
viability, T/C [7]: 84.1%
viability, T/C [8]: 69.3%
viability, T/C [9]: 88.7%
viability, T/C [10]: 73%
viability, T/C [11]: 70.8%
viability, T/C [12]: 48.2%
viability, T/C [13]: 67.5%
viability, T/C [14]: 79.3%
viability, T/C [15]: 80.4%
viability, T/C [16]: 72.3%
viability, T/C [17]: 58.7%
viability, T/C [18]: 46.2%
viability, T/C [19]: 65.4%
viability, T/C [20]: 64.5%
viability, T/C [21]: 59.3%
viability, T/C [22]: 59.7%
viability, T/C [23]: 66%
viability, T/C [24]: 36.2%
viability, T/C [25]: 54.6%
viability, T/C [26]: 58.2%
viability, T/C [27]: 62.3%
viability, T/C [28]: 53.7%
viability, T/C [29]: 46.7%
viability, T/C [30]: 32.2%
viability, T/C [31]: 47.8%
viability, T/C [32]: 54.2%
viability, T/C [33]: 51.6%
viability, T/C [34]: 48.9%
viability, T/C [35]: 41.3%
viability, T/C [36]: 34.5%

IC50 (second compound 0.0316 µM): 6.97 µM
IC50 (second compound 0.1 µM): > 10 µM
IC50 (second compound 0.316 µM): 8.25 µM
IC50 (second compound 1 µM): 6.02 µM
IC50 (second compound 3.16 µM): > 10 µM
IC50 (second compound 10 µM): 4.47 µM
Compound: CCCS(=O)(=O)Nc1ccc(F)c(C(=O)c2c[nH]c3ncc(-c4ccc(Cl)cc4)cc23)c1F + Cc1nc(NC(=O)N2CCCC2C(N)=O)sc1-c1ccnc(C(C)(C)C(F)(F)F)c1
viability, T/C [5]: 80.2%
viability, T/C [6]: 82%
viability, T/C [37]: 101%
viability, T/C [38]: 102%
viability, T/C [39]: 105%
viability, T/C [40]: 29.8%
viability, T/C [11]: 95.7%
viability, T/C [12]: 72%
viability, T/C [41]: 77.2%
viability, T/C [42]: 80%
viability, T/C [43]: 117%
viability, T/C [44]: 60.3%
viability, T/C [17]: 63%
viability, T/C [18]: 81.2%
viability, T/C [45]: 68.7%
viability, T/C [46]: 91.7%
viability, T/C [47]: 88.4%
viability, T/C [48]: 44.3%
viability, T/C [23]: 78.2%
viability, T/C [24]: 69.1%
viability, T/C [49]: 74%
viability, T/C [50]: 74.8%
viability, T/C [51]: 66.3%
viability, T/C [52]: 36.6%
viability, T/C [29]: 50.5%
viability, T/C [30]: 56.5%
viability, T/C [53]: 60.3%
viability, T/C [54]: 65.6%
viability, T/C [55]: 71.4%
viability, T/C [56]: 61.4%
viability, T/C [35]: 59.7%
viability, T/C [36]: 46.9%
viability, T/C [57]: 69.2%
viability, T/C [58]: 49.6%
viability, T/C [59]: 65.1%
viability, T/C [60]: 31.1%

IC50 (second compound 0.0316 µM): > 10 µM
IC50 (second compound 0.1 µM): > 10 µM
IC50 (second compound 0.316 µM): > 10 µM
IC50 (second compound 1 µM): > 10 µM
IC50 (second compound 3.16 µM): > 10 µM
IC50 (second compound 10 µM): > 10 µM
Compound: C[C@@H](NC(=O)c1ncnc(N)c1Cl)c1ncc(C(=O)Nc2cc(C(F)(F)F)c(Cl)cn2)s1 + Cc1nc(NC(=O)N2CCCC2C(N)=O)sc1-c1ccnc(C(C)(C)C(F)(F)F)c1
viability, T/C [5]: 87.1%
viability, T/C [6]: 88.3%
viability, T/C [37]: 84.6%
viability, T/C [38]: 105%
viability, T/C [39]: 94.2%
viability, T/C [40]: 100%
viability, T/C [11]: 105%
viability, T/C [12]: 77.1%
viability, T/C [41]: 85.4%
viability, T/C [42]: 96.7%
viability, T/C [43]: 98.3%
viability, T/C [44]: 97.6%
viability, T/C [17]: 65.6%
viability, T/C [18]: 100%
viability, T/C [45]: 68%
viability, T/C [46]: 99.7%
viability, T/C [47]: 89.7%
viability, T/C [48]: 78.7%
viability, T/C [23]: 72.8%
viability, T/C [24]: 80.4%
viability, T/C [49]: 79.6%
viability, T/C [50]: 70.1%
viability, T/C [51]: 96.6%
viability, T/C [52]: 76%
viability, T/C [29]: 55%
viability, T/C [30]: 71%
viability, T/C [53]: 71.9%
viability, T/C [54]: 74%
viability, T/C [55]: 69.4%
viability, T/C [56]: 68.2%
viability, T/C [35]: 56.4%
viability, T/C [36]: 59.9%
viability, T/C [57]: 62.1%
viability, T/C [58]: 54%
viability, T/C [59]: 61.8%
viability, T/C [60]: 54.5%
